Experimental data reported in ChEMBL document CHEMBL1146493, “Effect of phenolic glycosides on Agrobacterium tumefaciens virH gene induction and plant transformation” (J Nat Prod, 2004).
Activity calls are given as the source filed them. The calls are words filed in the database; no cut-off is given here.

What was measured:
[1] = system: Agrobacterium tumefaciens; test: Inhibition of virH gene expression in Agrobacterium tumefaciens A348 overexpressing pSM219 virH::lacZ assessed as beta-galactosidase activity at 100 uM after 18 hrs; type: functional, organism-based
Nicotiana tabacum [2] = test: Increase in genetic transformation in tobacco leaf explant co-cultured with Agrobacterium tumefaciens A348 assessed as callus formation at 100 uM after 4 weeks; type: functional
Nicotiana tabacum [3] = test: Increase in genetic transformation in tobacco leaf explant co-cultured with Agrobacterium tumefaciens A348 assessed as buds formation at 100 uM after 4 weeks; type: functional
[4] = system: Agrobacterium tumefaciens; test: Induction of virH gene expression in Agrobacterium tumefaciens A348 overexpressing pSM219 virH::lacZ assessed as beta-galactosidase activity at 0.5 mM after 18 hrs relative to acetosyringone; type: functional
Nicotiana tabacum [5] = test: Increase in transformation frequency of tobacco leaf explant co-cultured with Agrobacterium tumefaciens A348 assessed as explant survival at 100 uM after 21 days; type: functional
Nicotiana tabacum [6] = test: Increase in transformation frequency of tobacco leaf explant co-cultured with Agrobacterium tumefaciens A348 assessed as transgenic callus formation at 100 uM after 21 days; type: functional
[7] = system: Agrobacterium tumefaciens; test: Induction of virH gene expression in Agrobacterium tumefaciens A348 overexpressing pSM219 virH::lacZ assessed as beta-galactosidase activity at 10 mM after 18 hrs relative to acetosyringone; type: functional, organism-based
[8] = Toxicity in tobacco leaf explant co-cultured with Agrobacterium tumefaciens A348 assessed as mortality at 2 mM within 3 to 4 days; settings: nicotiana tabacum, 2000 µM
[9] = Toxicity in tobacco leaf explant co-cultured with Agrobacterium tumefaciens A348 assessed as detrimental genetic transformation at 500 uM after 4 weeks; settings: nicotiana tabacum, 672 h
[10] = system: Agrobacterium tumefaciens; test: Induction of virH gene expression in Agrobacterium tumefaciens A348 overexpressing pSM219 virH::lacZ assessed as beta-galactosidase activity at 100 uM after 18 hrs; type: functional, organism-based
[11] = system: Agrobacterium tumefaciens; test: Decrease in virH gene expression in Agrobacterium tumefaciens A348 overexpressing pSM219 virH::lacZ assessed as beta-galactosidase activity at >=250 uM after 18 hrs; type: functional, organism-based
[12] = system: Agrobacterium tumefaciens; test: Toxicity in Agrobacterium tumefaciens A348 overexpressing pSM219 virH::lacZ assessed as […] at 5 mM after 18 hrs; type: organism-based; settings: in vivo, 5000 µM
[13] = Toxicity in tobacco leaf explant co-cultured with Agrobacterium tumefaciens A348 assessed as mortality at 500 uM after 7 days; settings: nicotiana tabacum, 168 h
[14] = system: Agrobacterium tumefaciens; test: Induction of virH gene expression in Agrobacterium tumefaciens A348 overexpressing pSM219 virH::lacZ assessed as beta-galactosidase activity at 1 mM after 18 hrs relative to acetosyringone; type: functional

For `COc1cc(C(C)=O)ccc1O[C@@H]1OC[C@@H](O)[C@H](O)[C@H]1O`, the Activity [1] was “Active”.

For `COc1cc(C(=O)/C=C/c2ccc(O)cc2)cc(OC)c1O`, the Activity (Nicotiana tabacum [2]) was “Active” and the Activity (Nicotiana tabacum [3]) was “Active”.

With `COc1cc(C(C)=O)cc(OC)c1O[C@H]1O[C@H](CO)[C@@H](O)[C@H](O)[C@H]1O` the Activity [1] was “Active”, the Activity [4] was 25% and the Activity (Nicotiana tabacum [2]) was “Active”. For the same compound, the Activity (Nicotiana tabacum [3]) was “Active”, the Activity (Nicotiana tabacum [5]) was “Active” and the Activity (Nicotiana tabacum [6]) was “Active”.

With `COc1cc(C(C)=O)cc(OC)c1O[C@@H]1O[C@H](CO)[C@@H](O)[C@H](O)[C@H]1O` [GLUCOACETOSYRINGONE] the Activity [1] was “Active”, the Activity [7] was “Active” and the Activity (Nicotiana tabacum [2]) was “Active”. For the same compound, the Activity (Nicotiana tabacum [3]) was “Active”, the Activity [8] was “Non-toxic” and the Activity [9] was “Non-toxic”. For the same compound, the Activity (Nicotiana tabacum [5]) was “Active” and the Activity (Nicotiana tabacum [6]) was “Active”.

With `COc1cc(C(=O)/C=C/c2ccc(O)cc2)cc(OC)c1O[C@@H]1O[C@H](CO)[C@@H](O)[C@H](O)[C@H]1O` the Activity (Nicotiana tabacum [2]) was “Active” and the Activity (Nicotiana tabacum [3]) was “Active”.

For `COc1cc(/C=C/C(C)=O)cc(OC)c1O`, the Activity [10] was “Active”, the Activity (Nicotiana tabacum [2]) was “Active” and the Activity (Nicotiana tabacum [3]) was “Active”.

For `CC(=O)c1ccc(O[C@@H]2OC[C@@H](O)[C@H](O)[C@H]2O)cc1`, the Activity [1] was “Active”.

For `COc1cc(/C=C/C(C)=O)cc(OC)c1O[C@@H]1O[C@H](CO)[C@@H](O)[C@H](O)[C@H]1O`, the Activity [1] was “Active”, the Activity (Nicotiana tabacum [2]) was “Active” and the Activity (Nicotiana tabacum [3]) was “Active”.

For `COc1cc(C(C)=O)cc(OC)c1O` [ACETOSYRINGONE], the Activity [10] was “Active”, the Activity [11] was “Active” and the Activity [12] was “Toxic”. The Activity (Nicotiana tabacum [2]) was “Active”, the Activity (Nicotiana tabacum [3]) was “Active” and the Activity [13] was “Toxic”. For the same compound, the Activity [8] was “Toxic”, the Activity [9] was “Toxic” and the Activity (Nicotiana tabacum [5]) was “Active”. For the same compound, the Activity (Nicotiana tabacum [6]) was “Active”.

For `COc1cc(C(C)=O)cc(OC)c1O[C@@H]1OC[C@@H](O)[C@H](O)[C@H]1O`, the Activity [1] was “Active”, the Activity [4] was 25% and the Activity [14] was 50%. For the same compound, the Activity (Nicotiana tabacum [2]) was “Active”, the Activity (Nicotiana tabacum [3]) was “Active” and the Activity (Nicotiana tabacum [5]) was “Active”. The Activity (Nicotiana tabacum [6]) was “Active”.
